Measurements: patent US20260000676A1, “CHROMAN DERIVATIVES AS ESTROGEN RECEPTOR DEGRADERS” (THE REGENTS OF THE UNIVERSITY OF MICHIGAN, priority 2022, published 2026)
Where a name gives a salt, the structure may show the parent alone.

Columns and labels:
ER [1] = molecular target: T1, ER (Homo sapiens (Human), UniProt P03372); assay: In-cell western (ICW) ER degradation assay in MCF-7 cells; assay type: cell-based; details: MCF7, 16 hrs; for Dmax: MCF7, maximal ER degradation; for DC50: ER degradation
T1 sequence (P03372 whole entry): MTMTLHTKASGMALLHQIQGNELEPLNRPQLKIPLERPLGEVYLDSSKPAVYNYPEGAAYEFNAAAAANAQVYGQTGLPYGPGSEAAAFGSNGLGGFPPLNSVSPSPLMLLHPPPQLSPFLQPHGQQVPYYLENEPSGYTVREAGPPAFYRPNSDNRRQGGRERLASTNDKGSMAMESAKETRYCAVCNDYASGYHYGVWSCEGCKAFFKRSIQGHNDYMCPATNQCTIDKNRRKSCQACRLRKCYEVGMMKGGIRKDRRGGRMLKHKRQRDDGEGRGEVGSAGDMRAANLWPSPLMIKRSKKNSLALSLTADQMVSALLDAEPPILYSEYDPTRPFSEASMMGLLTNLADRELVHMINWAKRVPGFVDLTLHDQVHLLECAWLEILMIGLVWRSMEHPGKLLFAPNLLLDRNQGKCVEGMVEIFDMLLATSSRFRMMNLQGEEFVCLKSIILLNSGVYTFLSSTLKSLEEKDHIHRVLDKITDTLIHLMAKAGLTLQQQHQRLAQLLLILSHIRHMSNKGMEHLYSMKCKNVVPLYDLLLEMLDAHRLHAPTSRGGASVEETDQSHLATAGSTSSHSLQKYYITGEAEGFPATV
Protocol: (§1) ERa degradative activity of compounds can be assessed in MCF-7 and T47D Cells. MCF-7 and T47D cell are seeded and are subsequently treated with the compounds at certain concentrations (e.g., 0.02 to 300 nM). DMSO can be used as vehicle control. Cells are fixed and are blocked with Intercept (PBS) Blocking Buffer (e.g., Li-COR, Odyssey Blocking Buffer), and are stained with ER (e.g., 1:500, Cell signaling) primary antibody for overnight at cold room. Secondary Antibody (e.g., IRDye 800CW Goat anti-Rabbit IgG) and CellTag 700 Stain are added in Intercept (PBS) Blocking Buffer. Finally, cell plate is placed in incubator to dry. Image and signal are captured on Odyssey® DLx Imaging System.
(§2) Day 3: After 16 hrs of compounds treatment, cells were fixed by 4% PFA and permeabilized with elution buffer (0.1% Triton X-100 in 1% PBS Solution). Subsequently, cells were blocked with Intercept (PBS) Blocking Buffer (Li-COR, Odyssey Blocking Buffer), and were stained with ER (1:500, Cell signaling) primary antibody for overnight at cold room.
(§3) Day 4: Remove the buffer, add IRDye 800CW Goat anti-Rabbit IgG Secondary Antibody (1:2000) and CellTag 700 Stain (1:500) in Intercept (PBS) Blocking Buffer. Finally, cell plate is placed in incubator to dry. Image and signal were captured on Odyssey® DLx Imaging System.

ER [2] = molecular target: T1, ER; assay: In-cell western (ICW) ER degradation assay in T47D cells; assay type: cell-based; details: 16 hrs; for Dmax: maximal ER degradation; for DC50: ER degradation
Protocol: as §1, §2, §3

Structure (SMILES)	Dmax (ER [1])	Dmax (ER [2])	DC50 (ER [1])	DC50 (ER [2])
O=C1CCC(Nc2ccc3c(c2)OC[C@H]2CN(CC4CCN(c5ccc([C@@H]6c7ccc(O)cc7OC[C@@H]6c6ccccc6)cc5)CC4)CCN32)C(=O)N1 (single isomer, unassigned) [Compound A91, 3-(((R)-3-((1-(4-((3S,4R)-7-hydroxy-3-phenylchroman-4-yl)phenyl)piperidin-4-yl)methyl)-1,2,3,4,4a,5-hexahydrobenzo[b]pyrazino[1,2-d][1,4]oxazin-8-yl)amino)piperidine-2,6-dione hydrochloride]	50 to 75%	50 to 75%	–	–
O=C1CC[C@@H](N2Cc3c(ccc4c3OC[C@H]3CN(CC5CC6(CCN(c7ccc([C@@H]8c9ccc(O)cc9OC[C@@H]8c8ccccc8)cc7)CC6)C5)CCN43)C2=O)C(=O)N1 (single isomer, unassigned) [Compound A89]	≥ 75%	≥ 75%	< 1 nM	< 1 nM
COc1cccc([C@H]2COc3cc(O)ccc3[C@H]2c2ccc(N3CCC(CN4CCN5c6ccc7c(c6OC[C@H]5C4)CN(C4CCC(=O)NC4=O)C7=O)CC3)cc2)c1 (single isomer, unassigned) [Compound A33, 3-((R)-7-((1-(4-((3S,4R)-7-hydroxy-3-(3-methoxyphenyl)chroman-4-yl)phenyl)piperidin-4-yl)methyl)-1-oxo-1,3,5,5a,6,7,8,9-octahydro-2H-pyrazino[1′,2′:4,5][1,4]oxazino[2,3-e]isoindol-2-yl)piperidine-2,6-dione]	50 to 75%	50 to 75%	–	–
COc1ccc([C@H]2COc3cc(O)ccc3[C@H]2c2ccc(N3CCC(CN4CCN5c6ccc7c(c6OC[C@H]5C4)CN(C4CCC(=O)NC4=O)C7=O)CC3)cc2)cc1 (single isomer, unassigned) [Compound A16, 3-((R)-7-((1-(4-((3S,4R)-7-hydroxy-3-(4-methoxyphenyl)chroman-4-yl)phenyl)piperidin-4-yl)methyl)-1-oxo-1,3,5,5a, 6,7,8,9-octahydro-2H-pyrazino[1′,2′:4,5][1,4]oxazino[2,3-e]isoindol-2-yl)piperidine-2,6-dione]	–	–	< 1 nM	–
COc1ccc([C@H]2COc3cc(O)ccc3[C@H]2c2ccc(N3CCC(CN4CCN5c6ccc7c(c6OC[C@H]5C4)CN(C4CCC(=O)NC4=O)C7=O)CC3)cc2)cc1 (single isomer, unassigned) [Compound A16]	50 to 75%	–	–	–
O=C1CCC(N2Cc3cc4c(cc3C2=O)OC[C@@H]2CN(CC3CCN(c5ccc([C@@H]6c7ccc(O)cc7OC[C@@H]6c6ccccc6)cc5F)CC3)CCN42)C(=O)N1 (single isomer, unassigned) [Compound A2, 3-((S)-3-((1-(2-fluoro-4-((3S,4R)-7-hydroxy-3-phenylchroman-4-yl)phenyl)piperidin-4-yl)methyl)-8-oxo-1,2,3,4,4a, 5,8,10-octahydro-9H-pyrazino[1′,2′:4,5][1,4]oxazino[2,3-f]isoindol-9-yl)piperidine-2,6-dione]	–	–	1 to 10 nM	–
O=C1CCC(N2C(=O)c3cc4c(cc3C2=O)CN(CC(=O)N2CCC3(CC2)CCN(c2ccc([C@@H]5c6ccc(O)cc6OC[C@@H]5c5ccccc5)cc2)CC3)C4)C(=O)N1 (single isomer, unassigned) [Compound A3]	25 to 50%	–	1 to 10 nM	–
COc1cc(N2CCC(CN3CCN4c5ccc6c(c5OC[C@@H]4C3)CN([C@@H]3CCC(=O)NC3=O)C6=O)CC2)ccc1[C@H]1c2ccc(O)cc2OC[C@H]1c1ccccc1 (single isomer, unassigned) [Compound A121, (R)-3-((S)-7-((1-(4-((3R,4S)-7-hydroxy-3-phenylchroman-4-yl)-3-methoxyphenyl)piperidin-4-yl)methyl)-1-oxo-1,3,5,5a, 6,7,8,9-octahydro-2H-pyrazino[1′,2′:4,5][1,4]oxazino[2,3-e]isoindol-2-yl)piperidine-2,6-dione]	–	–	< 1 nM	< 1 nM
O=C1CCC(N2Cc3cc4c(cc3C2=O)OCC42CCN(CC3CC4(CCN(c5ccc([C@@H]6c7ccc(O)cc7OC[C@@H]6c6ccccc6)cc5)CC4)C3)CC2)C(=O)N1 (stereo partly drawn) [Compound A71, 3-(1′-((7-(4-((3S,4R)-7-hydroxy-3-phenylchroman-4-yl)phenyl)-7-azaspiro[3.5]nonan-2-yl)methyl)-7-oxo-5,7-dihydro-2H,6H-spiro[furo[2,3-f]isoindole-3,4′-piperidin]-6-yl)piperidine-2,6-dione]	50 to 75%	50 to 75%	< 1 nM	< 1 nM
O=C1CCC(N2Cc3cc4c(cc3C2=O)OC[C@@H]2CN(CC3CCN(c5ccc([C@@H]6c7ccc(O)cc7OC[C@@H]6c6ccccc6)cn5)CC3)CCN42)C(=O)N1 (single isomer, unassigned) [Compound A70, 3-((S)-3-((1-(5-((3S,4R)-7-hydroxy-3-phenylchroman-4-yl)pyridin-2-yl)piperidin-4-yl)methyl)-8-oxo-1,2,3,4,4a,5,8,10-octahydro-9H-pyrazino[1′,2′:4,5][1,4]oxazino[2,3-f]isoindol-9-yl)piperidine-2,6-dione]	< 25%	25 to 50%	–	–
O=C1CC[C@@H](N2Cc3c(ccc4c3OC[C@@H]3CN(CC5COC6(CCN(c7ccc([C@@H]8c9ccc(O)cc9OC[C@@H]8c8ccccc8)cc7F)CC6)C5)CCN43)C2=O)C(=O)N1 (single isomer, unassigned) [Compound A158, (3R)-3-((5aS)-7-((8-(2-fluoro-4-((3S,4R)-7-hydroxy-3-phenylchroman-4-yl)phenyl)-1-oxa-8-azaspiro[4.5]decan-3-yl)methyl)-1-oxo-1,3,5,5a,6,7,8,9-octahydro-2H-pyrazino[1′,2′:4,5][1,4]oxazino[2,3-e]isoindol-2-yl)piperidine-2,6-dione]	50 to 75%	≥ 75%	–	–
O=C1CCC(N2Cc3cc4c(cc3C2=O)OC[C@@H]2CN(CC3CCN(c5ccc([C@@H]6c7ccc(O)cc7OC[C@@H]6c6ccccc6)cc5)CC3)CCN42)C(=O)N1 (single isomer, unassigned) [Compound A1]	50 to 75%	–	1 to 10 nM	–
COc1cc(N2CCC(CN3CCC(c4ccc(N[C@H]5CCC(=O)NC5=O)cc4)CC3)CC2)ccc1[C@@H]1c2ccc(O)cc2OC[C@@H]1c1ccccc1 (stereo in doubt) [Compound A149, (S)-3-((4-(1-((1-(4-((3S,4R)-7-hydroxy-3-phenylchroman-4-yl)-3-methoxyphenyl)piperidin-4-yl)methyl)piperidin-4-yl)phenyl)amino)piperidine-2,6-dione]	50 to 75%	50 to 75%	< 1 nM	< 1 nM
O=C1CCC(N2Cc3cc4c(cc3C2=O)OCC42CCN(CC3CC4(CCN(c5ccc([C@H]6c7ccc(O)cc7OC[C@H]6c6ccccc6)cn5)CC4)C3)CC2)C(=O)N1 (stereo partly drawn) [Compound A123, 3-(1′-((7-(5-((3R,4S)-7-hydroxy-3-phenylchroman-4-yl)pyridin-2-yl)-7-azaspiro[3.5]nonan-2-yl)methyl)-7-oxo-5,7-dihydro-2H,6H-spiro[furo[2,3-f]isoindole-3,4′-piperidin]-6-yl)piperidine-2,6-dione]	50 to 75%	50 to 75%	< 1 nM	< 1 nM
O=C1CC[C@@H](N2Cc3c(ccc4c3OCC43CCN(CC4CC5(CCN(c6ccc([C@H]7c8ccc(O)cc8OC[C@H]7c7ccccc7)cc6)CC5)C4)CC3)C2=O)C(=O)N1 [Compound A143, (R)-3-(1′-((7-(4-((3R,4S)-7-hydroxy-3-phenylchroman-4-yl)phenyl)-7-azaspiro[3.5]nonan-2-yl)methyl)-6-oxo-6,8-dihydro-2H,7H-spiro[furo[2,3-e]isoindole-3,4′-piperidin]-7-yl)piperidine-2,6-dione]	25 to 50%	25 to 50%	10 to 100 nM	10 to 100 nM
O=C1CC[C@@H](N2Cc3cc4c(cc3C2=O)OC[C@H]2CN(CC3COC5(CCN(c6ccc(C7c8ccc(O)cc8OCC7c7ccccc7)cc6)CC5)C3)CCN42)C(=O)N1 (stereo in doubt) [Compound A139, (3R)-3-((4aR)-3-((8-(4-((3R,4S)-7-hydroxy-3-phenylchroman-4-yl)phenyl)-1-oxa-8-azaspiro[4.5]decan-3-yl)methyl)-8-oxo-1,2,3,4,4a, 5,8,10-octahydro-9H-pyrazino[1′,2′:4,5][1,4]oxazino[2,3-f]isoindol-9-yl)piperidine-2,6-dione]	50 to 75%	50 to 75%	< 1 nM	< 1 nM
O=C1CCC(N2Cc3cc4c(cc3C2=O)OCC42CCN(CC3CCN(c4ccc([C@@H]5c6ccc(O)cc6OC[C@@H]5c5ccccc5)cc4)CC3)CC2)C(=O)N1 (stereo partly drawn) [Compound A86, 3-(1′-((1-(4-((3S,4R)-7-hydroxy-3-phenylchroman-4-yl)phenyl)piperidin-4-yl)methyl)-7-oxo-5,7-dihydro-2H,6H-spiro[furo[2,3-f]isoindole-3,4′-piperidin]-6-yl)piperidine-2,6-dione]	–	25 to 50%	–	< 1 nM
O=C1CCC(N2Cc3cc4c(cc3C2=O)OC[C@@H]2CN(CC3CCN(c5ccc([C@@H]6c7ccc(O)cc7OC[C@@H]6c6ccccc6)cc5F)CC3)CCN42)C(=O)N1 (single isomer, unassigned) [Compound A2]	50 to 75%	–	–	–
